From patent US9492468B2, “Methods and compositions for treatment of acute heart failure” (PERICOR THERAPEUTICS, INC., priority 2008, dated 2016) come the findings set out here.

Data set [1] can be described thus: Octanol:water partition coefficient. Format: physicochemical. The conditions noted are these: read-out: Octanol: water partition coefficient (log P). The text has this:
Administering a better absorbed more lipophilic prodrug, which is subsequently hydrolysed to GP531, achieves an increase in the systemic availability of GP531.

Data set [2] is described as follows: Urinary excretion of GP531 after oral dosing in rat (relative/absolute bioavailability). In kind it is in vivo. The method, then: Two separate studies were conducted in the rat using the free base and/or the water soluble hydrochloride salt of Formula Va. In the first study, equimolar doses of GP531 (20 mg/kg) were administered orally in aqueous solution to separate groups (n=3) of rats as GP531 tartrate or Formula Va hydrochloride. […] Cmax increased 6-fold and AUC over 0-4 hr increased 4-fold. In a subsequent study, using the same equimolar doses of GP531 tartrate and prodrug, the relative bioavailability of GP531 was estimated in a group of rats (n=4) by comparison of the amount of GP531 excreted in urine after dosing.

`CC(C)(C)C(=O)O[C@@H]1[C@H](OC(=O)C(C)(C)C)[C@@H](CNCc2ccccc2)O[C@H]1n1cnc(C(N)=O)c1N` [Formula Va]: the logP in data set [1] stood at 3.31. In addition, the “GP531 bioavailability, free base vs hydrochloride salt of the prodrug” value in data set [2] is recorded as “no significant difference”.
